According to ChEMBL document CHEMBL4043218, “Analysis of the binding sites of vitamin D 1α-hydroxylase (CYP27B1) and vitamin D 24-hydroxylase (CYP24A1) for the design of selective CYP24A1 inhibitors: Homology modelling, molecular dynamics simulations and identification of key binding requirements” (Bioorg Med Chem, 2017):

Assays:
Homo sapiens = species: Homo sapiens; experiment: Selectivity index, ratio of IC50 for human CYP24A1 to IC50 for human CYP27B1
[1] = target: T1, 1,25-dihydroxyvitamin D(3) 24-hydroxylase, mitochondrial (Homo sapiens, UniProt Q07973); experiment: Inhibition of N-terminal MBP-tagged human CYP24A1 expressed in Escherichia coli assessed as reduction in […] activity incubated for 25 mins using Adx, AdR and 1,25(OH)2D3
T1 sequence (Q07973 whole entry): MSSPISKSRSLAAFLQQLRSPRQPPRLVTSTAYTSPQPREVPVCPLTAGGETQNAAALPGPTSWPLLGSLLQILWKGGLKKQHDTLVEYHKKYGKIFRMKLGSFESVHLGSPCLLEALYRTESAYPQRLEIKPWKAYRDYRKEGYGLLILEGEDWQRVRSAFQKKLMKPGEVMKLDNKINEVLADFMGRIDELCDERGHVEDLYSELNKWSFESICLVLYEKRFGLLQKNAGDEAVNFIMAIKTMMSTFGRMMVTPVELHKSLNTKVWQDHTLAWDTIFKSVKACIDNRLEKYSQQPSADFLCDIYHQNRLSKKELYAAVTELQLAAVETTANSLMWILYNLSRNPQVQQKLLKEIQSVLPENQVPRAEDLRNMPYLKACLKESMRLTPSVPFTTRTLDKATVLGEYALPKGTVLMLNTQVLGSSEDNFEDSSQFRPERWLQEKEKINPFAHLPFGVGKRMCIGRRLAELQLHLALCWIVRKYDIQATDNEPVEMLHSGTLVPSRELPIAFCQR

[2] = target: T2, 25-hydroxyvitamin D-1 alpha hydroxylase, mitochondrial (Homo sapiens, UniProt O15528); experiment: Inhibition of human CYP27B1 expressed in Escherichia coli assessed as reduction in […] activity incubated for 25 mins using Adx, AdR and […]
T2 sequence (O15528 whole entry): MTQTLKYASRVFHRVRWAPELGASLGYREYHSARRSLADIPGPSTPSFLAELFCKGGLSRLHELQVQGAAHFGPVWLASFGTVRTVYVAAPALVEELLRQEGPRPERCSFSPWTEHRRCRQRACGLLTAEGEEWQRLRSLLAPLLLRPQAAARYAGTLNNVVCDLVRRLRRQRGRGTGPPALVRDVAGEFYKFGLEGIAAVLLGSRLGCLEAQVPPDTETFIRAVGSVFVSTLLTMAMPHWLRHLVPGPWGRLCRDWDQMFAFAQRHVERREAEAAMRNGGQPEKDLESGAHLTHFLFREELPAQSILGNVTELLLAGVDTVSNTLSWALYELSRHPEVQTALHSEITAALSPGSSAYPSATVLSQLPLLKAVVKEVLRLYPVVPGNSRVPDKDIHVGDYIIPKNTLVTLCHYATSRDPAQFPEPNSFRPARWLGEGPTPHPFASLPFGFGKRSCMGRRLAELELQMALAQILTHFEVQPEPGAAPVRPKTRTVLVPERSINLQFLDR

[3] = target: T1, 1,25-dihydroxyvitamin D(3) 24-hydroxylase, mitochondrial; experiment: Inhibition of human CYP24A1
[4] = target: T2, 25-hydroxyvitamin D-1 alpha hydroxylase, mitochondrial; experiment: Inhibition of human CYP27B1

Row | Ratio IC50 (Homo sapiens) | IC50 [1] | IC50 [2] | IC50 [3] | IC50 [4] | Structure (SMILES)
1 | 5 | 2.6 µM | 0.41 µM | – | – | Cc1[nH]nc(O)c1C(c1cccc(OCc2ccncc2)c1)c1c(O)n[nH]c1C
2 | 5 | 2.5 µM | 0.57 µM | – | – | Cc1[nH]nc(O)c1C(c1ccc(OCc2ccncc2)cc1)c1c(O)n[nH]c1C
3 | 66 | – | – | > 10 µM | 0.0602 µM | CN(C)CCn1nnnc1SCC(O)(Cn1ccnc1)c1ccc(Cl)cc1Cl (configuration not stated)
4 | 47 | – | – | 4.48 µM | 0.0952 µM | CN(C)c1cccc2c(S(=O)(=O)NC(Cn3ccnc3)c3ccc(Cl)cc3Cl)cccc12 (configuration not stated)
